Source: patent US4479962A, “Indazoloxypropanolamine derivatives and use in combating, and for the prophylaxis of, cardiac and circulatory diseases” (Boehringer Mannheim GmbH, priority 1981, dated 1984)

Tested on: left ventricle
Assay: Cardiotonic effect in wake dogs, left ventricular dp/dt, in relation to isoprenalin
Format: in vivo
Details: intravenous, wake mongrel dogs, average of two to four individual tests; for ED50: Canis lupus familiaris, increasing dosage in intervals of ten minutes, read-out: ED50 (dosage which achieves one-half of the maximum effect), dp/dt; for dp/dt (%) of 0.3/μg/kg Isoprenalin i.v. (maximum achievable effect in comparison to isoprenalin): relative to 0.3 μg/kg isoprenalin i.v.
Procedure: For the tests, mongrel dogs of both sexes were used. In a preparatory operation, catheters had been inserted under aseptic conditions into the Arteria and Vena femoralis and, through the myocardium, into the left ventricle. The tests were begun not less than ten days after this operation, when the animals were again in a clinically healthy state. Throughout the test, during which the animals were wake, the arterial blood pressure was determined by means of a catheter and an electromechanical transducer. In addition, the pressure in the left ventricle was continuously measured by means of a tip manometer which had been introduced into the ventrical catheter and advanced as far as the heart, and from that pressure the differentiation based on the time dp/dt max was determined. The heart rate (f cor) was computed by counting the heart beats at a fast chart speed at given times of measurement. At the beginning of the experiments the animals were injected intravenously with 0.3 μg/kg of isoprenalin and the effect on the rapidity of the pressure increase recorded. After dissipation of this injection the test compounds were injected intravenously in increasing dosage rates in intervals of ten minutes and again the effect of each dosage level determined. For the characterization of the effectiveness of the test compounds two criteria were calculated: 1. The termination of the achievable maximum effect in comparison to isoprenalin. The maximum achievable effect of the test compound was compared to that of isoprenalin. (The higher the value, the stronger the effect.) 2. From the logarithm of the injected dosages and the effect after injection, the dosage was determined which achieves one-half of the maximum effect (ED 50). […]

Row | Compound | ED50 [µg/kg] | dp/dt (%) of 0.3/μg/kg Isoprenalin i.v. (maximum achievable effect in comparison to isoprenalin) [%]
1 | Cc1cccc(C)c1NCCNCC(O)COc1cccc2c1CCN2C=O (centres unmarked) [1-(1-formylindolin-4-yloxy)-3-[2-(2,6-dimethylphenylamino)-ethylamino]-propan-2-ol] | 4.2 | 87
2 | Cc1cccc(C)c1NCCNCC(O)COc1cccc2[nH]nnc12.Cl.Cl (centres unmarked) [1-(Benztriazol-4-yloxy)-3-[2-(2,6-dimethylphenylamino)-ethylamino]-propan-2-ol dihydrochloride] | 3.5 | 100
3 | Cc1cccc(C)c1NCCNCC(O)COc1cccc2[nH]ncc12 (centres unmarked) [1-(Indazol-4-yloxy)-3-[2-(2,6-dimethylphenylamino)ethylamino]-propan-2-ol] | 2.2 | 87
4 | Cc1cccc(C)c1NCCNCC(O)COc1cccc2[nH]ccc12.O=C(O)O (centres unmarked) [1-(Indol-4-yloxy)-3-[2-(2,6-dimethylphenylamino)-ethylamino]-propan-2-ol dihydrogen carbonate] | 3.2 | 85
5 | O=[N+]([O-])c1cccc(NCCNCC(O)COc2cccc3[nH]ncc23)c1 (centres unmarked) [1-(indazol-4-yloxy)-3-[2-(3-nitrophenylamino)-ethylamino]-propan-2-ol] | 2 | 66
6 | OC(CNCCNc1cccc2c1CCC2)COc1cccc2[nH]ncc12 (centres unmarked) [1-(indazol-4-yloxy)-3-[2-(indanyl-4-amino)-ethylamino]-propan-2-ol] | 4.9 | 83
7 | Cc1cccc(C)c1NCCCNCC(O)COc1cccc2[nH]ncc12 (centres unmarked) [1-(indazol-4-yloxy)-3-[3-2,6-dimethylphenylamino)-propylamino]-propan-2-ol] | 4.2 | 110
